Reference: US9096589B2, “Heteroaromatic phenylimidazole derivatives as PDE10A enzyme inhibitors” (H. Lundbeck A/S, priority 2009, dated 2015)

Key:
[1] = tested on: rats; details: cited from earlier work
[2] = tested on: rats; details: cited from earlier work; remark: listed apart in the source
[3] = tested on: rats; details: cited from earlier work; remark: listed apart in the source
[4] = target: PDE10A (Homo sapiens (Human), UniProt Q9Y233); test: PDE10A inhibition assay; type: biochemical
In short: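 Human PDE10A catalytic domain (aa 440-779) was expressed in E. coli BL21(DE3), with enzyme set to convert 20-25% of substrate. Reactions used 5 nM [3H]cAMP in 50 mM HEPES pH 7.6, 10 mM MgCl2, 0.02% Tween20 and 0.1 mg/ml BSA for 1 h at rt, read by yttrium silicate SPA. IC50 is relative to the uninhibited control.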

Chain of PDE10A (Q9Y233 716-1055): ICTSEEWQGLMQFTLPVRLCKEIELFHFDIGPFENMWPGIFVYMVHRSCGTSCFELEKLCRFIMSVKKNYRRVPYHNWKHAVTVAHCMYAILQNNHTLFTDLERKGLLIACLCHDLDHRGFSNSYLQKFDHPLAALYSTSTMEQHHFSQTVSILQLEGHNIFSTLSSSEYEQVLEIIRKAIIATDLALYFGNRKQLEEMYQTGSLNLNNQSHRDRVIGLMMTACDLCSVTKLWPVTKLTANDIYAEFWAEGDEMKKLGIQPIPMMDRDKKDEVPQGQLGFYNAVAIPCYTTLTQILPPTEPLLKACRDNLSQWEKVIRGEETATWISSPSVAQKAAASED

SMILES | IC50 [4] [nM] | further results
COc1ccc(Cc2nccc3cc(OC)c(OC)cc23)cc1OC [Papaverine, papaverine] |  | reduction of amphetamine induced hyperactivity [1]: insignificant; catalepsy on its own ([2]; alone): did not cause catalepsy on its own; effect on the cataleptic effect of the D2 receptor antagonist haloperidol ([2]; with haloperidol): potentiated the cataleptic effect; hyperactivity induced by PCP [3]: reduced hyperactivity
Cc1ccc(-c2cn(COCC[Si](C)(C)C)c(/C=C/c3nc4cccc(C)n4n3)n2)s1 [5-Methyl-2-{(E)-2-[4-(5-methyl-thiophen-2-yl)-1-(2-trimethylsilanyl-ethoxymethyl)-1H-imidazol-2-yl]-vinyl}-[1,2,4]triazolo[1,5-a]pyridine] | 210 | 
Cc1cccc2nc(/C=C/c3nc(-c4ccco4)cn3COCC[Si](C)(C)C)nn12 [2-{(E)-2-[4-Furan-2-yl-1-(2-trimethylsilanyl-ethoxymethyl)-1H-imidazol-2-yl]-vinyl}-5-methyl-[1,2,4]triazolo[1,5-a]pyridine] | 46 | 
Cc1cc(C)n2cc(/C=C/c3nc(-c4cccnc4)cn3C)nc2n1 [5,7-Dimethyl-2-[(E)-2-(1-methyl-4-pyridin-3-yl-1H-imidazol-2-yl)-vinyl]-imidazo[1,2-a]pyrimidine] | 220 | 
Cc1cc(C)n2cc(CCc3nc(-c4cccs4)cn3C(C)C)nc2n1 [2-[2-(1-Isopropyl-4-thiophen-2-yl-1H-imidazol-2-yl)-ethyl]-5,7-dimethyl-imidazo[1,2-a]pyrimidine] | 160 | 
Cc1ccc(C)n2nc(CCc3nc(-c4nccs4)cn3C)nc12 [5,8-Dimethyl-2-[2-(1-methyl-4-thiazol-2-yl-1H-imidazol-2-yl)-ethyl]-[1,2,4]triazolo[1,5-a]pyridine] | 2.3 | 
Cc1cccc2nc(CCc3nc(-c4cccs4)cn3C[C@@H](O)CCl)nn12 [(R)-1-Chloro-3-{2-[2-(5-methyl-[1,2,4]triazolo[1,5-a]pyridin-2-yl)-ethyl]-4-thiophen-2-yl-imidazol-1-yl}-propan-2-ol] | 2.8 | 
Cc1cc(C)n2cc(/C=C/c3nc(-c4ccsc4)cn3C)nc2n1 [5,7-Dimethyl-2-[(E)-2-(1-methyl-4-thiophen-3-yl-1H-imidazol-2-yl)-vinyl]-imidazo[1,2-a]pyrimidine] | 56 | 
Cc1cc(C)n2cc(/C=C/c3nc(-c4cnccn4)cn3C)nc2n1 [5,7-Dimethyl-2-[(E)-2-(1-methyl-4-pyrazin-2-yl-1H-imidazol-2-yl)-vinyl]-imidazo[1,2-a]pyrimidine] | 340 | 
Cc1ccc(-c2cn(C)c(CCc3nc4c(C)ccc(C)n4n3)n2)o1 [5,8-Dimethyl-2-{2-[1-methyl-4-(5-methyl-furan-2-yl)-1H-imidazol-2-yl]-ethyl}-[1,2,4]triazolo[1,5-a]pyridine] | 4.2 | 
Cc1ncc(C)n2nc(CCc3nc(-c4cnccn4)cn3C)nc12 [5,8-Dimethyl-2-[2-(1-methyl-4-pyrazin-2-yl-1H-imidazol-2-yl)-ethyl]-[1,2,4]triazolo[1,5-a]pyrazine] | 0.52 | 
